The target of test [1] is T1, human glucocorticoid receptor-α [GRX] isoform (Homo sapiens, UniProt P04150).
T1 construct: host or cells: insect SF21 cells (baculovirus)
T1 sequence (P04150 1-777): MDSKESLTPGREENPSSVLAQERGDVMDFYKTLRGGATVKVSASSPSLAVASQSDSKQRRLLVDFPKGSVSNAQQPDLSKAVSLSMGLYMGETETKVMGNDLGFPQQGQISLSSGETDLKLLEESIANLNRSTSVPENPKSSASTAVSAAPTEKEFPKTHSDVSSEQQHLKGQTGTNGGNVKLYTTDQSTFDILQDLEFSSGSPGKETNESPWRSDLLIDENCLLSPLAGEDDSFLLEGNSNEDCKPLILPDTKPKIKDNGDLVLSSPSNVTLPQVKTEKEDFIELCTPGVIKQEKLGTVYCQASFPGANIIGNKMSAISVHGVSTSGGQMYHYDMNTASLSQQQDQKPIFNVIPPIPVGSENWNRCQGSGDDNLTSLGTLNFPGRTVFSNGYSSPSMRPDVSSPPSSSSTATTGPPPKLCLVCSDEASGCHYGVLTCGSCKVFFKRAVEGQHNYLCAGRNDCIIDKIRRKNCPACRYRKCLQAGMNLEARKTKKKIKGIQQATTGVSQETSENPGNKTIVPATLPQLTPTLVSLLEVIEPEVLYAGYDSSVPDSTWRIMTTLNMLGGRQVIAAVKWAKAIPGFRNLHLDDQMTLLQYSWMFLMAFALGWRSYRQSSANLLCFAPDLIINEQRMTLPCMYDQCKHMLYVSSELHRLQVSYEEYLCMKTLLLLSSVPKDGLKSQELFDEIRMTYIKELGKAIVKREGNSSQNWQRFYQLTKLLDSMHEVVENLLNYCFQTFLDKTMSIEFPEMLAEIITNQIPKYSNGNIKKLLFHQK
As to the kind of experiment: Radioligand binding with human glucocorticoid receptor cytosol ([3H]-dexamethasone competition). To be noted: GRX cytosol expressed in insect SF21 cells, [3H]-Dex ~0.9 nM, 4° C. overnight; Ki by Cheng-Prusoff, KL ~[…]; read-out: Ki (nM) GR.

In test [2] the target is T2, human progesterone receptor-A [PRA] isoform (Homo sapiens, UniProt P06401).
T2 construct: host or cells: insect SF21 cells (baculovirus)
T2 sequence (P06401 1-769 isoform P06401-2): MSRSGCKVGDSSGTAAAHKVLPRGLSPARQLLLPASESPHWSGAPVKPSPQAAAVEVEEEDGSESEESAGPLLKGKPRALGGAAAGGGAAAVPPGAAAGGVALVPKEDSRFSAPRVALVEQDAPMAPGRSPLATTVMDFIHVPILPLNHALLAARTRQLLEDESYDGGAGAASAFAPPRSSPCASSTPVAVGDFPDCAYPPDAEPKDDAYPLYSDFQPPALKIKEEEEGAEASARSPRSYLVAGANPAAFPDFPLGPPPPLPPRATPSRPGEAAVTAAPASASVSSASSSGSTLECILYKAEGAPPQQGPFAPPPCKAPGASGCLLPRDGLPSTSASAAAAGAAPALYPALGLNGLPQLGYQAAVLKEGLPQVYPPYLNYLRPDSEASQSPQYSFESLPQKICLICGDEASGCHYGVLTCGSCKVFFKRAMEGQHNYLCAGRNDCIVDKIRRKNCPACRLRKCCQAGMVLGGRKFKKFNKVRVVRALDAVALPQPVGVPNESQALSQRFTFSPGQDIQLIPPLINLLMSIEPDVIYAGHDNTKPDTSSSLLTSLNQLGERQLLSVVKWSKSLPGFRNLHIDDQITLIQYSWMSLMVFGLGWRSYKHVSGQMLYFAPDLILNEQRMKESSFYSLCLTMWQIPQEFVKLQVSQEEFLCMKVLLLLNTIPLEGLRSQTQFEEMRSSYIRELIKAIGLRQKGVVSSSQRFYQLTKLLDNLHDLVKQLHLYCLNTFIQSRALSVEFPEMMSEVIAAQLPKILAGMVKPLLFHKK
As to the kind of experiment: Radioligand binding with human progesterone receptor cytosol ([3H]-progesterone competition). To be noted: PRA cytosol expressed in insect SF21 cells, [3H]Prog ~0.8 nM, 4° C. overnight; Ki by Cheng-Prusoff, KL ~4.5 nM; read-out: Ki (nM) PR.

The values that follow come from patent US6506766B1 (Abbott Laboratories, priority 1998, dated 2003).

By Ki is commonly meant the equilibrium dissociation constant of an inhibitor or competing ligand from its target.

As for `COc1cccc2c1-c1ccc3c(c1C(c1cccc(F)c1)O2)C(C)=CC(C)(C)N3` (centres unmarked) [Example 56, 5-(3-Fluorophenyl)-2,5-Dihydro-10-methoxy-2,2,4-trimethyl-1H-[1]benzopyrano[3,4-f]quinoline], the Ki in test [1] is 6.2 nM; in test [2], no less than 10000 nM.

As to `COc1cccc2c1-c1ccc3c(c1C(C(C)C)O2)C(C)=CC(C)(C)N3` (centres unmarked) [Example 58, 2,5-Dihydro-10-methoxy-2,2,4-trimethyl-5-(1-methylethyl)-1H-[1]benzopyrano[3,4-f]quinoline], the figures for the Ki in test [1] and in test [2] were 9 nM and 8570 nM, respectively.

Take `COc1cccc2c1-c1ccc3c(c1C(CC(C)C)O2)C(C)=CC(C)(C)N3` (centres unmarked) [Example 59, 2,5-Dihydro-10-methoxy-2,2,4-trimethyl-5-(2-methlpropyl)-1H-[1]benzopyrano[3,4-f]quinoline]: the inhibition constant Ki is 9.5 nM in test [1] and 16600 nM in test [2].

On to `CCC1Oc2cccc(OC)c2-c2ccc3c(c21)C(C)=CC(C)(C)N3` (centres unmarked) [Example 60, 5-Ethyl-2,5-dihydro-10-methoxy-2,2,4-trimethyl-1H-[1]benzopyrano[3,4-f]quinoline], for which the results for the Ki in test [1] and in test [2] were 14 nM and 10500 nM, respectively.

As to `CCOC(=N)C1Oc2cccc(OC)c2-c2ccc3c(c21)C(C)=CC(C)(C)N3` (centres unmarked) [Example 61, 2,5-Dihydro-10-methoxy-2,2,4-trimethyl-1H-[1]benzopyrano[3,4-f]quinoline-5-carboximidic Acid Ethyl Ester], the Ki in test [1] was 62 nM; in test [2] it was 14400 nM.

Turning to `COc1cccc2c1-c1ccc3c(c1C(CC(=O)N(C)C)O2)C(C)=CC(C)(C)N3` (centres unmarked) [Example 63, 2,5-Dihydro-10-methoxy-2,2,4,N,N-pentamethyl-1H-[1]benzopyrano[3,4-f]quinoline-5-acetamide], the Ki is 511 nM in test [1] and no less than 10000 nM in test [2].

On to `COc1cccc2c1-c1ccc3c(c1C(CC(=O)NC1CC1)O2)C(C)=CC(C)(C)N3` (centres unmarked) [Example 65, N-Cyclopropyl-2,5-Dihydro-10-methoxy-2,2,4-trimethyl-1H-[1]benzopyrano[3,4-f]quinoline-5-acetamide], for which the Ki in test [1] was 591 nM; in test [2], no less than 10000 nM.

`COc1cccc2c1-c1ccc3c(c1C(C1C=CC(=O)O1)O2)C(C)=CC(C)(C)N3` (centres unmarked) [Example 67, 5-(2,5-Dihydro-10-methoxy-2,2,4-trimethyl-1H-[1]benzopyrano[3,4-f]quinolin-5-yl)2(5H)-furanone]: the Ki in test [1] was 21.7 nM; in test [2] it was no less than 10000 nM.

In the case of `C=CCCC1Oc2cccc(OC)c2-c2ccc3c(c21)C(C)=CC(C)(C)N3` (centres unmarked) [Example 68, 5-(32-Butenyl)-2,5-dihdro-10-methoxy-2,2,4-trimethyl-1H -1H-[1]benzopyrano[3,4-f]quinoline], the Ki in test [1] is 8 nM; in test [2], 9050 nM.

For `CCc1cccc2c1-c1ccc3c(c1C(c1ccccc1)O2)C(C)=CC(C)(C)N3` (centres unmarked) [Example 70, 10-Ethyl-2,5-dihydro-2,2,4-trimethyl-5-phenyl-1H-[1]benzopyrano[3,4-f]quinoline], the Ki in test [1] worked out at 25.5 nM; in test [2], 7300 nM.

As for `CC1=CC(C)(C)Nc2ccc3c(c21)C(c1ccccc1)Oc1cccc(C)c1-3` (centres unmarked) [Example 71, 2,5-Dihydro-2,2,4,10-tetrametnyl-5-phenyl-1H-[1]benzopyrano[3,4-f]quinoline], the Ki in test [1] amounted to 7.7 nM; in test [2], 484 nM.

For the compound `CCc1cccc2c1-c1ccc3c(c1C(c1cc(Cl)cc(Cl)c1)O2)C(C)=CC(C)(C)N3` (centres unmarked) [Example 72, 5-(3,5-Dichlorophenyl)-10-ethyl-2,5-dihydro-2,2,4-trimethyl-1H-[1]benzopyrano[3,4-f]quinoline], the figures for the Ki in test [1] and in test [2] were 17.8 nM and 1450 nM, respectively.

For `CNc1cccc2c1-c1ccc3c(c1C(c1cc(Cl)cc(Cl)c1)O2)C(C)=CC(C)(C)N3` (centres unmarked) [Example 73, 5-(3,5-Dichlorophenyl)-2,5-dihydro-2,2,4,N-tetramethyl-1H[1]benzopyrano[3,4-f]quinolin-10-amine], the values for the Ki in test [1] and in test [2] were 10.3 nM and 4500 nM, respectively.
